Literature values in patent publication US20210213132A1, “FORMULATIONS OF SN-38 WITH POLY(AMINO ACID) BLOCK POLYMERS” (Tyndall Formulation Services, LLC, priority 2020, published 2021).
Where two headings read alike, the source gives them in different places.

Key:
[1] = test system: metastatic colorectal cancer patients; conditions: patients treated with irinotecan
[2] = test system: carboxylesterases, specifically CES1 and CES2
[3] = molecular target: T1, topoisomerase I (Homo sapiens, UniProt P11387); conditions: SN-38 versus irinotecan
T1 sequence (P11387 1-765): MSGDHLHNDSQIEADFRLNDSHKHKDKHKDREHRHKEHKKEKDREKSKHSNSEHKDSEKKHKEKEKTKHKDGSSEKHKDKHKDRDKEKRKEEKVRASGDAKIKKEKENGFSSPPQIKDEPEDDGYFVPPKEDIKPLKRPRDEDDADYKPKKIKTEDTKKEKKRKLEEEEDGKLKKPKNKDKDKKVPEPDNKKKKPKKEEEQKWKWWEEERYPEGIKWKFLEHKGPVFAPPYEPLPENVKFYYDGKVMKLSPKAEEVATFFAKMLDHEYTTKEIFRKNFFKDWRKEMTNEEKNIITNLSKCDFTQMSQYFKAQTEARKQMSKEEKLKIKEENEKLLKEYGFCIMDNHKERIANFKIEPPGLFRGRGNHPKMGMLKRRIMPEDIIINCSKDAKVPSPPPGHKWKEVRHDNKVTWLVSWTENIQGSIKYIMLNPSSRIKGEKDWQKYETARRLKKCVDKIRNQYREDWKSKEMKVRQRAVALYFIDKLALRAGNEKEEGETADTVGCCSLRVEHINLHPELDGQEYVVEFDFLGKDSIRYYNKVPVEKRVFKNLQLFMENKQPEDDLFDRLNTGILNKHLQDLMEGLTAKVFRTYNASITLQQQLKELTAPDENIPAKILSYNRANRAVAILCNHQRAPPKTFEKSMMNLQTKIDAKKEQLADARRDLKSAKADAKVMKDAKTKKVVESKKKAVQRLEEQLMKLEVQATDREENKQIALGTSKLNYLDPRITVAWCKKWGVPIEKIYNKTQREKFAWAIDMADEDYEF

| Compound | Percentage of patients experiencing asthenia ([1]; UGT1A1 *1/*1 genotype) | Percentage of patients experiencing diarrhea ([1]; UGT1A1 *1/*1 genotype) | Percentage of patients experiencing neutropenia ([1]; UGT1A1 *1/*1 genotype) | Percentage of patients experiencing asthenia ([1]; UGT1A1 *1/*28 genotype) | Percentage of patients experiencing diarrhea ([1]; UGT1A1 *1/*28 genotype) | Percentage of patients experiencing neutropenia ([1]; UGT1A1 *1/*28 genotype) | Percentage of patients experiencing asthenia ([1]; UGT1A1 *28/*28 genotype) | Percentage of patients experiencing diarrhea ([1]; UGT1A1 *28/*28 genotype) | Percentage of patients experiencing neutropenia ([1]; UGT1A1 *28/*28 genotype) | Affinity of the carboxylesterases for irinotecan [2] | Potency relative to irinotecan [3] | Solubility in aqueous media |
| --- | --- | --- | --- | --- | --- | --- | --- | --- | --- | --- | --- | --- |
| CCc1c2c(nc3ccc(OC(=O)N4CCC(N5CCCCC5)CC4)cc13)-c1cc3c(c(=O)n1C2)COC(=O)[C@]3(O)CC [Irinotecan] | 25% | 17% | 15% | 38% | 33% | 27% | 70% | 70% | 40% | low |  |  |
| CCc1c2c(nc3ccc(O)cc13)-c1cc3c(c(=O)n1C2)COC(=O)[C@]3(O)CC [SN-38] |  |  |  |  |  |  |  |  |  |  | 100 to 1000 fold | extremely insoluble |
